Test results published in patent US10111921B2, “Regulation of brain biogenic amines associated with depression by a formulation from botanical source” (GoVind Prasad Dubey, priority 2014, dated 2018).
Marks after values point to notes of the source that are not given here.

Experiments:
[1] = system: Melatonin; assay: Melatonin level in brain, experimental sleep deprivation stress model; type: in vivo, rats of Charles foster strain; settings: 7 days sleep deprivation stress + drug, 10 rats
Procedure: In this group the sleep deprivation stress was introduced along with the hydro-alcoholic extract of three plants Nyctanthes arbor-tristis, Ocimum tenuiflorum and Hippophae salicifolia. […] On 7th day (after two hours of administration of test drug) different parts of the rat's brain were dissected and 5-HT, melatonin GABA. glutamate and histamine were measured. […]

[2] = system: MAO; assay: Circulating MAO following experimental sleep deprivation stress; type: in vivo, rats of Charles foster strain; settings: 7 days sleep deprivation stress + drug, 10 rats
Procedure: (§1) The study is divided into four groups, 10 rats of Charles foster strain were kept in each study group.
(§2) In this group the sleep deprivation stress was introduced along with the hydro-alcoholic extract of three plants Nyctanthes arbor-tristis, Ocimum tenuiflorum and Hippophae salicifolia. The drug Nyctanthes arbor-tristis (100 mg/kg bw./day), Ocimum tenuiflorum (50 mg/kg bw./day), Hippophae salicifolia (50 mg/kg bw./day) was given in combined form to all the 10 rats along with sleep deprivation stress. On 7th day (after two hours of administration of test drug) different parts of the rat's brain were dissected and 5-HT, melatonin GABA. glutamate and histamine were measured.
(§3) On 7th days the animals were sacrifice and brain biogenic amines were estimated in different parts of rat's brain.
(§4) The value obtained were compared with each other group (Normal vs sleep deprivation stress and sleep deprivation stress vs sleep deprivation stress+test formulation and sleep deprivation stress vs modern drug treatment group. Apart from initial at 7 day before sacrificing the animals circulating biogenic amines were also measured in all the three groups.

[3] = system: Glutamate; assay: Glutamate level in brain following experimental sleep deprivation stress; type: in vivo, rats of Charles foster strain; settings: 7 days sleep deprivation stress + drug, 10 rats
Description: as §1
(§5) In control group 10 rats were selected and kept on normal saline for 7 days. On 7th days the animals were sacrificed and various biogenic amines like 5-HT GABA & glutamate, melatonin and MAO were estimated. After dissection of rat's brain the biogenic amines were estimated in thalamus, hypothalamus and cortex.
(§6) In this group sleep deprivation stress for 7 days was given to all the 10 rats. After 7 days the rat's brain were dissected and thalamus, hypo-thalamus and cortex were separated for the measurement of brain biogenic amines.
as §2, §3, §4

[4] = system: GABA; assay: GABA content in the brain following experimental sleep deprivation stress; type: in vivo, rats of Charles foster strain; settings: 7 days sleep deprivation stress + drug, 10 rats
Description: as §1, §5, §6, §2, §3, §4

[5] = system: Glutamate; assay: Circulating glutamate following experimental sleep deprivation stress; type: in vivo, rats of Charles foster strain; settings: 7 days sleep deprivation stress + drug, 10 rats
Procedure: as §1, §2, §3, §4

[6] = system: GABA; assay: Circulating GABA following experimental sleep deprivation stress; type: in vivo, rats of Charles foster strain; settings: 7 days sleep deprivation stress + drug, 10 rats
Procedure: as §1, §2, §3, §4

[7] = system: Histaminase; assay: Circulating histaminase following experimental sleep deprivation stress; type: in vivo, rats of Charles foster strain; settings: 7 days sleep deprivation stress + drug, 10 rats
Procedure: as §1, §2, §3, §4

[8] = system: TNF-α; assay: TNF-α in mild to moderate depressive patients; type: in vivo, human
Procedure: (§7) In the present study 99 cases between the age group of 20 to 60 years presenting the symptoms of mild to moderate depression were selected for clinical trial of test formulation containing extract of Nyctanthes arbor-tristis, Ocimum tenuiflorum and Hippophae salicifolia. The subjects were advised to take test formulation twice in a day in two divided doses (475 mg morning and 475 mg in the evening). The level of mood was measured by Major Depression Inventory (MDI) developed by Olsen L R et al (2003), the fatigue and psychomotor performance was measured by Mental Fatigue Apparatus and Rotary Pursuit Task. These tests and test battery are recommended by Gupta and Dubey (1994) for the scientific and objective assessment in the area of drug development. The behavioral pattern was repeatedly assessed at the continuous interval of one month for six months.

[9] = system: minor depressive cases; assay: Mental fatigue level (Mental Fatigue Apparatus), clinical trial; type: in vivo, human
Procedure: as §7

[10] = system: depression cases; assay: Delta wave in depression cases; type: in vivo, human
Procedure: as §7

[11] = system: GABA; assay: GABA level in depression cases; type: in vivo, human
Procedure: as §7

[12] = system: depression patients; assay: Attention span (score), clinical trial; type: in vivo, human
Procedure: as §7

[13] = system: Glutamate; assay: Glutamate level in depression cases; type: in vivo, human
Procedure: as §7

[14] = system: Epinephrine; assay: Epinephrine level in depressive cases; type: in vivo, human; settings: Initial
Description: (§8) In the present study 99 cases between the age group of 20 to 60 years presenting the symptoms of mild to moderate depression were selected for clinical trial of test formulation containing extract of Nyctanthes arbor-tristis, Ocimum tenuiflorum and Hippophae salicifolia. […] The behavioral pattern was repeatedly assessed at the continuous interval of one month for six months.

[15] = system: Platelet MAO; assay: Platelet MAO activity in depressive disorder cases; type: in vivo, human
Procedure: as §7

[16] = system: depressive disorder cases; assay: Anxiety level (score), clinical trial; type: in vivo, human
Procedure: as §7

[17] = system: IL-1 β; assay: Interleukin-1 β concentration in mild to moderate depressive patients; type: in vivo, human
Procedure: as §7

[18] = system: minor depressive cases; assay: Rotatory pursuit task (psychomotor coordination), clinical trial; type: in vivo, human
Procedure: as §7

[19] = system: depressive patients; assay: Sleep pattern by polysomnographic studies in depressive patients; type: in vivo, human
Procedure: as §7
In control series (Sertraline treated) all the investigations were repeated and compared with the treated group.
There is an increase in DHA content after oral administration of test formulation for 6 months (Table-12). […] Neuro-peptide-γ is the 36-amino acid which affects anxiety, stress, pain, circadian rhythm and also associated various psychiatric disorders particularly depression of varying degree. […] The effect of test formulation on sleep pattern measured by recording on polysomnographic studies indicated improvement in sleep period, total sleep, sleep latency and various stages of sleep. Though none of the cases could achieve the stage four. The results obtained in the test formulation treatment group were compared with the conventional drug treated group and exerted significant difference when the conventional treated group was compared with the test formulation treated group (Table-16-17). The drug was found safe and effective after 6 months of continuous oral administration to depressed patients.

[20] = system: mild to moderate depression; assay: Clinical symptomatology (in percent), clinical trial; type: in vivo, human
Procedure: as §7

[21] = system: Glutamate; assay: Column headed Glutamate (nmol/mg/hr) in platelet MAO table, depressive disorder cases; type: in vivo, human; settings: After 6 months; clinical Table 8
Description: as §8

[22] = system: Neuro-peptide-γ; assay: Neuro-peptide-γ content in depressed patients; type: in vivo, human
[23] = system: depressive disorder cases; assay: Mental fatigue (Time), clinical trial; type: in vivo, human
Procedure: as §7

[24] = system: depression cases; assay: Occipito frontalis muscle action potential in depression cases; type: in vivo, human
Procedure: as §7

[25] = system: DHA; assay: DHA content in mild to moderate depressive patients; type: in vivo, human
Procedure: as §7

CNC1=Nc2ccc(Cl)cc2C(c2ccccc2)=[N+]([O-])C1 [Librium]
Melatonin, Hypothalamus ([1]; hypothalamus): 7.80 ± 1.02 μg/gm in wet tissue
Melatonin, Thalamus ([1]; thalamus): 5.95 ± 1.85 μg/gm in wet tissue
MAO (circulating) [2]: 4.72 ± 0.89 nmol/m//hrs.
Glutamate, Cortex ([3]; cortex): 13.97 ± 2.11 μmol/gm in wet tissue
Glutamate, Hypothalamus ([3]; hypothalamus): 12.66 ± 3.06 μmol/gm in wet tissue
Glutamate, Thalamus ([3]; thalamus): 11.64 ± 3.01 μmol/gm in wet tissue
GABA, Cortex ([4]; cortex): 2.62 ± 0.59 μmol/gm in wet tissue
GABA, Hypothalamus ([4]; hypothalamus): 4.68 ± 1.02 μmol/gm in wet tissue
GABA, Thalamus ([4]; thalamus): 3.91 ± 0.58 μmol/gm in wet tissue
Glutamate (circulating) [5]: 1.11 ± 0.10 µmol/mL
GABA (circulating) [6]: 1.02 ± 0.18 µmol/mL
Histaminase (circulating) [7]: 35.46 ± 4.95 µg/mL

CN[C@H]1CC[C@@H](c2ccc(Cl)c(Cl)c2)c2ccccc21 [Sertraline]
TNF-1 α ([8]; After 2 months): 3.71 ng/mL
TNF-1 α ([8]; After 4 months): 3.85 ng/mL
TNF-1 α ([8]; After 6 months): 4.14 ng/mL
TNF-1 α ([8]; Initial): 4.82 ng/mL
Mental fatigue level ([9]; After 2 months): 19.68 Hz
Mental fatigue level ([9]; After 4 months): 19.02 Hz
Mental fatigue level ([9]; After 6 months): 18.45 Hz
Mental fatigue level ([9]; Initial): 18.22 Hz
Delta Wave ([10]; After 2 months): 0.94 Hz
Delta Wave ([10]; After 4 months): 1.06 Hz
Delta Wave ([10]; After 6 months): 1.02 Hz
Delta Wave ([10]; Initial): 0.68 Hz
GABA ([11]; After 6 months): 1.410 µmol/mL
GABA ([11]; Initial): 1.070 µmol/mL
Attention span ([12]; After 6 months): 9.32 Score
Attention span ([12]; Initial): 10.49 Score
Glutamate ([13]; After 6 months): 0.385 µmol/mL
Glutamate ([13]; Initial): 0.419 µmol/mL
Epinephrine [14]: 5.32 ng/mL
Platelet MAO ([15]; After 6 months): 5.98 nmol/mL/h
Platelet MAO ([15]; Initial): 5.04 nmol/mL/h
Anxiety level ([16]; After 6 months): 58.5 score
Anxiety level ([16]; Initial): 56.5 score
IL-1 β ([17]; After 2 months): 1.886 µg/mL
IL-1 β ([17]; After 4 months): 1.923 µg/mL
IL-1 β ([17]; After 6 months): 1.790 µg/mL
IL-1 β ([17]; Initial): 2.098 µg/mL
Rotatory pursuit task ([18]; After 2 months): 28.03 Hz
Rotatory pursuit task ([18]; After 4 months): 27.47 Hz
Rotatory pursuit task ([18]; After 6 months): 26.52 Hz
Rotatory pursuit task ([18]; Initial): 28.39 Hz
Sleep Latency ([19]; After 6 months treatment): 14.98 min
Sleep period ([19]; After 6 months treatment): 438.35 min
Stage-I (Time in min) ([19]; After 6 months treatment): 162.98 min
Stage-II (Time in min) ([19]; After 6 months treatment): 46.22 min
Stage-III (Time in min) ([19]; After 6 months treatment): 15.82 min
Total Sleep ([19]; After 6 months treatment): 201.94 min
Sleep Latency ([19]; Before treatment): 13.62 min
Sleep period ([19]; Before treatment): 445.90 min
Stage-I (Time in min) ([19]; Before treatment): 179.32 min
Stage-II (Time in min) ([19]; Before treatment): 45.82 min
Stage-III (Time in min) ([19]; Before treatment): 18.22 min
Total Sleep ([19]; Before treatment): 234.98 min
Early fatiguability ([20]; After 6 months): 91.12* percent
Lack of interest ([20]; After 6 months): 92.20* percent
Pessimistic thinking ([20]; After 6 months): 95.86* percent
Poor appetite ([20]; After 6 months): 50.03* percent
Poor concentration ([20]; After 6 months): 86.02* percent
Poor sleep ([20]; After 6 months): 79.41* percent
Psychomotor retardation ([20]; After 6 months): 78.09* percent
Weight loss ([20]; After 6 months): 40.32* percent
Early fatiguability ([20]; Initial): 98.01%
Lack of interest ([20]; Initial): 97.82%
Pessimistic thinking ([20]; Initial): 96.27%
Poor appetite ([20]; Initial): 58.89%
Poor concentration ([20]; Initial): 88.41%
Poor sleep ([20]; Initial): 98.04%
Psychomotor retardation ([20]; Initial): 74.66%
Weight loss ([20]; Initial): 42.01%
Glutamate [21]: 4.23 nmol/mg/h
Neuro-peptide-γ ([22]; After 2 months): 148.90 pg/mL
Neuro-peptide-γ ([22]; After 4 months): 151.89 pg/mL
Neuro-peptide-γ ([22]; After 6 months): 156.04 pg/mL
Neuro-peptide-γ ([22]; Initial): 129.68 pg/mL
Mental fatigue (Time) ([23]; After 6 month): 90.3
Mental fatigue (Time) ([23]; Initial): 94.5
Occipito frontalis muscle action potential ([24]; After 2 months): 41.75
Occipito frontalis muscle action potential ([24]; After 4 months): 42.82
Occipito frontalis muscle action potential ([24]; After 6 months): 40.86
Occipito frontalis muscle action potential ([24]; Initial): 4.378
DHA ([25]; After 2 months): 1.082 g/100 g of total fatty acid
DHA ([25]; After 4 months): 1.920 g/100 g of total fatty acid
DHA ([25]; After 6 months): 1.980 g/100 g of total fatty acid
DHA ([25]; Initial): 1.096 g/100 g of total fatty acid
